Test results: ChEMBL document CHEMBL1268873, “Nitrile-containing pharmaceuticals: efficacious roles of the nitrile pharmacophore” (J Med Chem, 2010)
≈ marks a conversion by molar mass, not a printed value.

Assays:
L1210 = assay: Cytotoxicity against mouse L1210 cells; type: functional, cell-based; settings: for IC50: Mus musculus, L1210
KB = assay: Cytotoxicity against human KB cells; type: functional, cell-based
[1] = Inhibition of HIV RT; set-up: species or system Human immunodeficiency virus

IC50 [1] [µM]	SMILES	IC50 (L1210) [µg/mL]	IC50 (KB) [µg/mL]	IC5 (L1210) [ng/mL]
–	COc1cc([C@@H]2c3cc4c(cc3[C@@H](O[C@@H]3O[C@@H]5CO[C@H](C)O[C@H]5[C@H](O)[C@H]3O)[C@H]3COCC23)OCO4)cc(OC)c1OC (stereo not given in full)	0.155 (≈ 0.263 µM)	0.308 (≈ 0.523 µM)	–
–	COc1cc([C@@H]2c3cc4c(cc3[C@@H](C#N)[C@H]3COCC23)OCO4)cc(OC)c1OC (stereo not given in full)	–	0.155 (≈ 0.379 µM)	3.48
–	COc1cc([C@@H]2c3cc4c(cc3[C@@H](C(=O)O)[C@H]3COCC23)OCO4)cc(OC)c1OC (stereo not given in full)	0.164 (≈ 0.383 µM)	10 (≈ 23.3 µM)	–
0.56	Cc1c(Oc2cc(Cl)cc(Cl)c2)c(C(C)C)nn1CCO	–	–	–
0.35	CCc1nn(CCO)c(CC)c1Oc1cccc(C#N)c1	–	–	–
0.119	CCc1nn(CCO)c(CC)c1Oc1cc(C#N)cc(C#N)c1 [LERSIVIRINE]	–	–	–

SMILES	IC50 [1] [µM]	IC50 (L1210) [µg/mL]	IC50 (KB) [µg/mL]	IC5 (L1210) [ng/mL]
CC(C)c1nc(COC(N)=O)n(Cc2ccncc2)c1Sc1cc(Cl)cc(Cl)c1 [CAPRAVIRINE]	0.093	–	–	–
